Each molecule was assayed against Human Factor D (Homo sapiens (Human), UniProt P00746) (assay: Human Factor D Assay). Conditions: Human Factor D 80 nM, substrate Z-L-Lys-SBzl, DTNB, A405; read-out: IC50 (Stars).
Human Factor D, sequence (P00746 26-253): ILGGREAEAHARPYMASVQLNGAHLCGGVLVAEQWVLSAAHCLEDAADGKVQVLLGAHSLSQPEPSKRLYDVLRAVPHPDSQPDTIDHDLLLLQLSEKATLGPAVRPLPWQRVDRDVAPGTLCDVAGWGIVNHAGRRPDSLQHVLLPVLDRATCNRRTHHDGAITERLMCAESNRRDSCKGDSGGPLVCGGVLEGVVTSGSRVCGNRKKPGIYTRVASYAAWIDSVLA
Type: biochemical
How it was run: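 Serum-purified enzyme (80 nM final) was preincubated with compound 5 min at room temperature in 50 mM Tris, 1M NaCl, pH 7.5. Z-L-Lys-SBzl and DTNB ([…] each, final) were added and A405 followed every 30 s for 30 min; IC50 from nonlinear regression of reaction rates.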
`CC(=O)c1nn(CC(=O)N2C[C@@]3(F)CNC(=O)C(C)(C)CCCCOCc4ccc(Br)nc4NC(=O)[C@@H]2C3)c2ccc(-c3cnc(C)nc3)cc12` [Compound T-173] gave an IC50 of under 1000 nM.
For `CC(=O)c1nn2c3c(cc(-c4cnc(C)nc4)cc13)CCCCCCc1cccc(n1)OC[C@@]13C[C@@H](C(=O)Nc4nc(Br)ccc4C)N(C(=O)C2)[C@@H]1C3` [Compound T-140], the IC50 was under 1000 nM.
Work on `CC(=O)c1nn(CC(=O)N2[C@H]3C[C@@]4(CNC(=O)C(C)(C)CC=CCOCc5ccc(Br)nc5NC3=O)C[C@@H]24)c2ccc(-c3cnc(C)nc3)cc12` [Compound T-115] yielded an IC50 of under 1000 nM.
`CC(=O)c1nn2c3c(cc(-c4cnc(C5CC5)nc4)cc13)CCCCCCC(=O)NC[C@@]13C[C@@H](C(=O)Nc4nc(C(F)(F)F)ccc4C)N(C(=O)C2)[C@@H]1C3` [Compound T-242] showed an IC50 of under 1000 nM.
In the case of `CC(=O)c1nn2c3c(cc(-c4cnc(C)nc4)cc13)CC=CCCCC(=O)NC[C@@]13C[C@@H](C(=O)Nc4nc(Br)ccc4C)N(C(=O)C2)[C@@H]1C3` [Compound T-21, (41R,43S,45R)-13-acetyl-N-(6-bromo-3-methylpyridin-2-yl)-15-(2-methylpyrimidin-5-yl)-3,7-dioxo-11H-42,6-diaza-1(1,7)-indazoia-4(2,5)-bicyclo[3.1.0]hexanacyclotridecaphan-11-ene-43-carboxamide], the IC50 is reported as under 1000 nM.
With `CC(=O)c1nn2c3c(cc(-c4cnc(C)nc4)cc13)CCCCC[C@@H](C)C(=O)N(C)C[C@@]13C[C@@H](C(=O)Nc4nc(C(F)(F)F)ccc4C)N(C(=O)C2)[C@@H]1C3` [Compound T-205] the IC50 was under 1000 nM.
With “(41R,43S,45R)-42-(2-(3-acetyl-5-(2- methylpyrimidin-5-yl)-1H-indazol-1- yl)acetyl)-16-bromo-6-methyl-7-thia-42,6- diaza-1(2,3)-pyridina-4(3,5)- bicyclo[3.1.0]hexanacycloundecaphan-10- en-3-one 7,7-dioxide [Compound T-17]” the IC50 was under 1000 nM.
`CC(=O)c1nn(CC(=O)N2[C@H]3C[C@]4(C[C@@H]24)CN(C)CCCCOCc2ccc(Br)nc2NC3=O)c2ccc(-c3cnc(C)nc3)cc12` [Compound T-7, (41R,43S,45R)-42-(2-(3-acetyl-5-(2-methylpyrimidin-5-yl)-1H-indazol-1-yl)acetyl)-16-bromo-6-methyl-11-oxa-42,2,6-triaza-1(2,3)-pyridina-4(3,5)-bicyclo[3.1.0]hexanacyclododecaphan-3-one] was tested, and the IC50 was under 1000 nM.
Molecule `CC(=O)c1nn2c3c(cc(-c4cnc(C)nc4)cc13)CCCCCCC(=O)NC[C@@]13C[C@@H](C(=O)Nc4nc(C(F)(F)F)ccc4C)N(C(=O)C2)[C@@H]1C3` [Compound T-220] has an IC50 of under 1000 nM.
For `CC(=O)c1nn(CC(=O)N2[C@H]3C[C@@]4(COCCCCCCCc5ccc(Br)nc5NC3=O)C[C@@H]24)c2cnc(-c3cnc(C)nc3)cc12` [Compound T-41], the IC50 was under 1000 nM.
In the case of `CC(=O)c1nn(CC(=O)N2[C@H]3C[C@@]4(C=CCCCCCCc5ccc(Br)nc5NC3=O)C[C@@H]24)c2ccc(-c3cnc(C)nc3)cc12` [Compound T-48], the IC50 is reported as under 1000 nM.
`CC(=O)c1nn2c3c(cc(-c4cnc5cc(C)nn5c4)cc13)CCCCCCC(=O)NC[C@@]13C[C@@H](C(=O)Nc4nc(C(F)(F)F)ccc4C)N(C(=O)C2)[C@@H]1C3` [Compound T-256] gave an IC50 of under 1000 nM.
For `CC(=O)c1nn2c3c(cc(-c4cnc(C)nc4)cc13)CC=CCCCC(=O)NC[C@@]13C[C@@H](C(=O)Nc4cc(C)cc(Br)n4)N(C(=O)C2)[C@@H]1C3` [Compound T-189], the IC50 was under 1000 nM.
With `CC(=O)c1nn2c3c(cc(-c4cnc(C)nc4)cc13)CC=CCCC(C)(C)C(=O)NC[C@@]13C[C@@H](C(=O)Nc4ccn(CC(F)(F)F)n4)N(C(=O)C2)[C@@H]1C3` [Compound T-184] the IC50 was under 1000 nM.
With `CC(=O)c1nn2c3c(cc(-c4cnc(C)nc4)cc13)CCCCCCC(=O)NC[C@@]13CC(C(=O)N[C@H](C)c4cccc(Cl)c4F)N(C(=O)C2)[C@@H]1C3` (stereo partly shown) [Compound T-227] the IC50 was under 1000 nM.
In the case of `CC(=O)c1nn(CC(=O)N2[C@H]3C[C@@]4(CNC(=O)C(C)(C)CCCOCc5ccc(Br)nc5NC3=O)C[C@@H]24)c2ccc(-c3cnc(C)nc3)cc12` [Compound T-130], the IC50 is reported as under 1000 nM.
`Cc1ncc(-c2cc3c4c(c2)c(C(N)=O)nn4CC(=O)N2[C@H](C(=O)Nc4nc(Br)ccc4C)C[C@@]4(CNC(=O)CCCCCC3)C[C@@H]24)cn1` [Compound T-153] gave an IC50 of under 1000 nM.
`CC(=O)c1nn(CC(=O)N2[C@H]3C[C@@]4(CNC(=O)C(C)(C)CCCCOCc5ccc(Br)nc5NC3=O)C[C@@H]24)c2cnc(-c3cnc(C)nc3)cc12` [Compound T-118] was tested, and the IC50 was under 1000 nM.
In the case of `CC(=O)c1nn2c3c(cc(-c4ccc5nc(C)nn5c4)cc13)CCCCCCC(=O)NC[C@@]13C[C@@H](C(=O)Nc4nc(C(F)(F)F)ccc4C)N(C(=O)C2)[C@@H]1C3` [Compound T-257], the IC50 is reported as under 1000 nM.
`CC(=O)c1nn2c3c(nc(-c4cnc(C)nc4)cc13)CCCCCCC(=O)NC[C@@]13C[C@@H](C(=O)Nc4nc(C(F)(F)F)ccc4C)N(C(=O)C2)[C@@H]1C3` [Compound T-132] gave an IC50 of under 1000 nM.
Work on `CC(=O)c1nn(CC(=O)N2[C@H]3C[C@@]4(CNC(=O)C(C)(C)CCCCCc5ccc(Br)nc5NC3=O)C[C@@H]24)c2ccc(-c3cnc(C)nc3)cc12` [Compound T-182] yielded an IC50 of under 1000 nM.
`CC(=O)c1nn2c3c(cc(-c4cnc(C)nc4)cc13)CCCCCCC(=O)NC[C@@]13C[C@@H](C(=O)N[C@@H](C)COC(F)(F)F)N(C(=O)C2)[C@@H]1C3` [Compound T-206] gave an IC50 of under 1000 nM.
With `CC(=O)c1nn2c3c(cc(-c4cnc(C)nc4)cc13)CC=CCCCC(=O)NC[C@@]13C[C@@H](C(=O)Nc4nc(Br)c(F)cc4C)N(C(=O)C2)[C@@H]1C3` [Compound T-84] the IC50 was under 1000 nM.
`CC(=O)c1nn2c3c(cc(-c4cnc(C)nc4)cc13)CC=CCCCC(=O)NC[C@]1(F)CN(C[C@@H]1C(=O)Nc1nc(C(F)(F)F)ccc1C)C(=O)C2` [Compound T-167] showed an IC50 of under 1000 nM.
Work on `CC(=O)c1nn(CC(=O)N2[C@H]3C[C@@]4(CCCCCCCN(C)Cc5ccc(Br)nc5NC3=O)C[C@@H]24)c2cnc(-c3cnc(C)nc3)cc12` [Compound T-98] yielded an IC50 of under 1000 nM.
`CC(=O)c1nn(CC(=O)N2[C@H]3C[C@]4(C[C@@H]24)CN(C)CCCCC=CCc2ccc(Br)nc2NC3=O)c2c(C)cc(-c3cnc(C)nc3)cc12` [Compound T-60] gave an IC50 of under 1000 nM.
Molecule `CC(=O)c1nn2c3c(cc(-c4cnc(C)nc4)cc13)CCC=CCCCC(=O)NC[C@@]13C[C@@H](C(=O)Nc4nc(Br)ccc4C)N(C(=O)C2)[C@@H]1C3` [Compound T-20, (41R,43S,45R)-13-acetyl-N-(6-bromo-3-methylpyridin-2-yl)-15-(2-methylpyrimidin-5-yl)-3,7-dioxo-11H-42,6-diaza-1(1,7)-indazola-4(2,5)-bicyclo[3.1.0]hexanacyclotetradecaphan-11-ene-43-carboxamide] has an IC50 of under 1000 nM.
`CC(=O)c1nn2c3c(cc(-c4cnc(C)nc4)cc13)CCCCCC(C)(C)C(=O)NC[C@@]13C[C@@H](C(=O)Nc4ccn(CC(F)(F)F)n4)N(C(=O)C2)[C@@H]1C3` [Compound T-185] gave an IC50 of under 1000 nM.
`CC(=O)c1nn(CC(=O)N2[C@H]3C[C@@]4(COCC=CCOCc5ccc(Br)nc5NC3=O)C[C@@H]24)c2c(C)cc(-c3cnc(C)nc3)cc12` [Compound T-192] gave an IC50 of under 1000 nM.
In the case of `CC(=O)c1nn2c3c(cc(-c4cnc(C)nc4)cc13)CCCCCNC(=O)NC[C@@]13C[C@@H](C(=O)Nc4nc(C(F)(F)F)ccc4C)N(C(=O)C2)[C@@H]1C3` [Compound T-238], the IC50 is reported as under 1000 nM.
`CC(=O)c1nn(CC(=O)N2C[C@@]3(F)COCCCCOCc4ccc(Br)nc4NC(=O)[C@@H]2C3)c2ccc(-c3cnc(C)nc3)cc12` [Compound T-162] was tested, and the IC50 was under 1000 nM.
`CC(=O)c1nn(CC(=O)N2[C@H]3C[C@@]4(CCCCCCCOCc5ccc(Br)nc5NC3=O)C[C@@H]24)c2c(CF)cc(-c3cnc(C)nc3)cc12` [Compound T-87] showed an IC50 of under 1000 nM.
For `CC(=O)c1nn2c3c(cc(-c4cnc(C)nc4)cc13)CCCCCCCc1cccc(c1)COC[C@@]13C[C@@H](C(=O)Nc4nc(Br)ccc4C)N(C(=O)C2)[C@@H]1C3` [Compound T-136], the IC50 was under 1000 nM.
`CC(=O)c1nn(CC(=O)N2[C@H]3C[C@]4(C[C@@H]24)CN(C)CCCCC=Cc2ccc(Br)nc2NC3=O)c2ccc(-c3cnc(C)nc3)cc12` [Compound T-8, (41R,43S,45R)-42-(2-(3-acetyl-5-(2-methylpyrimidin-5-yl)-1H-indazol-1-yl)acetyl)-16-bromo-6-methyl-42,2,6-triaza-1(2,3)-pyridina-4(3,5)-bicyclo[3.1.0]hexanacyclododecaphan-11-en-3-one] was tested, and the IC50 was under 1000 nM.
With `CC(=O)c1nn2c3c(cc(-c4cnc(C)nc4)cc13)CCCCCCCCC[C@@]13C[C@@H](C(=O)Nc4nc(Br)ccc4C)N(C(=O)C2)[C@@H]1C3` [Compound T-111] the IC50 was under 1000 nM.
`CC(=O)c1nn(CC(=O)N2[C@H]3C[C@@]4(CNC(=O)C(C)(C)C=CCOCc5ccc(C(F)(F)F)nc5NC3=O)C[C@@H]24)c2cnc(-c3cnc(C)nc3)cc12` [Compound T-224] showed an IC50 of under 1000 nM.
With `CC(=O)N[C@H]1CC=CCOCc2ccc(Br)nc2NC(=O)[C@@H]2C[C@@]3(CNC1=O)C[C@H]3N2C(=O)Cn1nc(C(C)=O)c2cc(-c3cnc(C)nc3)ccc21` [Compound T-22, N-((41R,43S,45R,8S)-42-(2-(3-acetyl-5-(2-methylpyrimidin-5-yl)-1H-indazol-1-yl)acetyl)-16-bromo-3,7-dioxo-13-oxa-42,2,6-triaza-1(2,3)-pyridina-4(3,5)-bicyclo[3.1.0]hexanacyclotetradecaphan-10-en-8-yl)acetamide] the IC50 was under 1000 nM.
In the case of `CC(=O)c1nn(CC(=O)N2[C@H]3C[C@@]4(CNC(=O)C(C)(C)CCCCOCc5ccc(Br)nc5NC3=O)C[C@@H]24)c2ccc(-c3cnc(C)nc3)cc12` [Compound T-117], the IC50 is reported as under 1000 nM.
For `CC(=O)c1nn(CC(=O)N2C[C@@]3(F)COCCCCCCCc4ccc(Br)nc4NC(=O)[C@@H]2C3)c2c(C)nc(-c3cnc(C)nc3)cc12` [Compound T-107], the IC50 was under 1000 nM.
Work on `CC(=O)c1nn2c3c(cc(-c4cnc(C)nc4)cc13)CC=CCCCC(=O)NC[C@@]13C[C@@H](C(=O)Nc4cc(C)c(F)c(Br)n4)N(C(=O)C2)[C@@H]1C3` [Compound T-217] yielded an IC50 of under 1000 nM.
